Measurements published in patent US20120245137A1 (Zalicus Pharmaceuticals Ltd., priority 2009, published 2012).

Assays:
Format in all cases: cell-based
[1] = molecular target: human α1G T-type channels (Homo sapiens, UniProt O43497); assay: T-type calcium channel block, whole cell patch clamp, α1G; settings: HEK cells stably expressing human α1G; mainly non-inactivated protocol; values above 10,000 nM represented as 10000
Outline: (§1)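 Whole-cell T-type currents, stably transfected HEK 293 (human α1G/α1H), passage 4-20. Cmpd in external soln, 0.1-0.01% DMSO, local gravity perfusion after ~10 min rest. Two voltage protocols: non-inactivating (resting block), inactivation (voltage-dependent block).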

[2] = molecular target: human α1H T-type channels (Homo sapiens, UniProt O95180); assay: T-type calcium channel block, whole cell patch clamp, α1H; settings: HEK cells stably expressing human α1H; mainly non-inactivated protocol; values above 10,000 nM represented as 10000
Outline: as §1

[3] = molecular target: N-type calcium channel subunits (α1B, α2δ, and β3a) (Homo sapiens, UniProt Q00975); assay: Block of Cav2.2 channel, whole cell voltage clamp, manual and PatchXpress; settings: Table 5; table follows Assay Example 3 (whole cell voltage clamp / PatchXpress); assay not given
Outline: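 Percent block taken as current amplitude ratio with versus without compound, applied in rising doses; IC50 fitted where one cell received multiple doses. Protocol: 50 ms pulses to +20 mV at 0.067 Hz from […] or −90 mV holding; P/n leak subtraction, no junction-potential correction; manual and PatchXpress recordings.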

N-type calcium channel subunits (α1B, α2δ, and β3a), sequence (Q00975 whole entry): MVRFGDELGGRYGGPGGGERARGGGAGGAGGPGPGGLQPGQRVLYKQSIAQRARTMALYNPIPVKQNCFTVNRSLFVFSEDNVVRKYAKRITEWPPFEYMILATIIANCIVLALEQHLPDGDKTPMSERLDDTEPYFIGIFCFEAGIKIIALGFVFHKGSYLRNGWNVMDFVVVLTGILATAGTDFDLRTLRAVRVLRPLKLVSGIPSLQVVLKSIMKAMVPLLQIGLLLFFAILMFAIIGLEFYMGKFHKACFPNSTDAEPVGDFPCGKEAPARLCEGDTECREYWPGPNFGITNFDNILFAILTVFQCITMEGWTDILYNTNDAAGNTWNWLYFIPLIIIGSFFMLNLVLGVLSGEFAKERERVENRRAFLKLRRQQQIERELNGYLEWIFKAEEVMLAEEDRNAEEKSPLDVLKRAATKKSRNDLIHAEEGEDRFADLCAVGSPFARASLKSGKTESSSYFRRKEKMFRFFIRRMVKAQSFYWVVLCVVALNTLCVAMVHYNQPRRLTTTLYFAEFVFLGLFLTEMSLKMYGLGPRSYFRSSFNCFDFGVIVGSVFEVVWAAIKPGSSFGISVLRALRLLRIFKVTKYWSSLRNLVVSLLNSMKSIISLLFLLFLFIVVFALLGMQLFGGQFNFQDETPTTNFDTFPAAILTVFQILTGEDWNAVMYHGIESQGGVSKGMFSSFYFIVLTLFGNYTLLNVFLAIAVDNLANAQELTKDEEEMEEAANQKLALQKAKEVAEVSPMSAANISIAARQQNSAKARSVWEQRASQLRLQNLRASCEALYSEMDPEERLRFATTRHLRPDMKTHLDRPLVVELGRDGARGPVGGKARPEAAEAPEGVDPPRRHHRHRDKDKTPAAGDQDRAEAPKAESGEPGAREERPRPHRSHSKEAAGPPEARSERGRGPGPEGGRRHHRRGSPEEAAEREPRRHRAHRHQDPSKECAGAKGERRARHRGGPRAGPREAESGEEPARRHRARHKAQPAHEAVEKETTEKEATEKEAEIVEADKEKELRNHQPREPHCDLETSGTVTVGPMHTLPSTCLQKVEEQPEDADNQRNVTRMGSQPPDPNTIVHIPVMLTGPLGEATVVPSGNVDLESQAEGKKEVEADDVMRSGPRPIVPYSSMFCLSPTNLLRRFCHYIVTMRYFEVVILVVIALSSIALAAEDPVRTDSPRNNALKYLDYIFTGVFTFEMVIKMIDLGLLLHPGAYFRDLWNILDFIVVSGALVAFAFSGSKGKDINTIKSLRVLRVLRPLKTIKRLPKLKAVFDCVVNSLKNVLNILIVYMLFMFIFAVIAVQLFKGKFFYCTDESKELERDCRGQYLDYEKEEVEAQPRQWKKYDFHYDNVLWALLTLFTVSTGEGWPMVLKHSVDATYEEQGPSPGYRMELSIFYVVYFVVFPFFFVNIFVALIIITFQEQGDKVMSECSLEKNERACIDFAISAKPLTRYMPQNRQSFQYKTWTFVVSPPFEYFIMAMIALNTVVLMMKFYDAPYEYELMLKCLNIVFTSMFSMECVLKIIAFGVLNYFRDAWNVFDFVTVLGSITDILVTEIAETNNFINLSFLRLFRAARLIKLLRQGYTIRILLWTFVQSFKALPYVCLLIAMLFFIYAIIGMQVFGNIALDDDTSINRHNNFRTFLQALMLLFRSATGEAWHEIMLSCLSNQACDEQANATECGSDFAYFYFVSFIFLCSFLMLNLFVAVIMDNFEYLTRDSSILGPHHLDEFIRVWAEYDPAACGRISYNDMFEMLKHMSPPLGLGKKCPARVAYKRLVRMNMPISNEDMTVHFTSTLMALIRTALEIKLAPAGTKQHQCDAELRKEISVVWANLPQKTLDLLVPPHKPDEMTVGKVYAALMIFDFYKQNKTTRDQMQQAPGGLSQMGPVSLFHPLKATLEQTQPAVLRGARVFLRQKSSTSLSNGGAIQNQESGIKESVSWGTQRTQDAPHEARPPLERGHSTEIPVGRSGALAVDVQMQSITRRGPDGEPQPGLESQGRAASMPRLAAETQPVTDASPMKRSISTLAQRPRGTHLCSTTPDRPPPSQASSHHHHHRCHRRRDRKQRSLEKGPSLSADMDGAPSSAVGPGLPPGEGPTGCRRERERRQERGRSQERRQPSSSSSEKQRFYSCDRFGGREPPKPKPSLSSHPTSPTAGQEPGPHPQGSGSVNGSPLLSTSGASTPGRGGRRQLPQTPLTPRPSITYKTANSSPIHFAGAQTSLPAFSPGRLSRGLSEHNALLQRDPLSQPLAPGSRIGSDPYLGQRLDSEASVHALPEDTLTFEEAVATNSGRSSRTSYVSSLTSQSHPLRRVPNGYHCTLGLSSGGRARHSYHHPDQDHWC
N-type calcium channel subunits (α1B, α2δ, and β3a), sequence (P54289 25-1103 partner): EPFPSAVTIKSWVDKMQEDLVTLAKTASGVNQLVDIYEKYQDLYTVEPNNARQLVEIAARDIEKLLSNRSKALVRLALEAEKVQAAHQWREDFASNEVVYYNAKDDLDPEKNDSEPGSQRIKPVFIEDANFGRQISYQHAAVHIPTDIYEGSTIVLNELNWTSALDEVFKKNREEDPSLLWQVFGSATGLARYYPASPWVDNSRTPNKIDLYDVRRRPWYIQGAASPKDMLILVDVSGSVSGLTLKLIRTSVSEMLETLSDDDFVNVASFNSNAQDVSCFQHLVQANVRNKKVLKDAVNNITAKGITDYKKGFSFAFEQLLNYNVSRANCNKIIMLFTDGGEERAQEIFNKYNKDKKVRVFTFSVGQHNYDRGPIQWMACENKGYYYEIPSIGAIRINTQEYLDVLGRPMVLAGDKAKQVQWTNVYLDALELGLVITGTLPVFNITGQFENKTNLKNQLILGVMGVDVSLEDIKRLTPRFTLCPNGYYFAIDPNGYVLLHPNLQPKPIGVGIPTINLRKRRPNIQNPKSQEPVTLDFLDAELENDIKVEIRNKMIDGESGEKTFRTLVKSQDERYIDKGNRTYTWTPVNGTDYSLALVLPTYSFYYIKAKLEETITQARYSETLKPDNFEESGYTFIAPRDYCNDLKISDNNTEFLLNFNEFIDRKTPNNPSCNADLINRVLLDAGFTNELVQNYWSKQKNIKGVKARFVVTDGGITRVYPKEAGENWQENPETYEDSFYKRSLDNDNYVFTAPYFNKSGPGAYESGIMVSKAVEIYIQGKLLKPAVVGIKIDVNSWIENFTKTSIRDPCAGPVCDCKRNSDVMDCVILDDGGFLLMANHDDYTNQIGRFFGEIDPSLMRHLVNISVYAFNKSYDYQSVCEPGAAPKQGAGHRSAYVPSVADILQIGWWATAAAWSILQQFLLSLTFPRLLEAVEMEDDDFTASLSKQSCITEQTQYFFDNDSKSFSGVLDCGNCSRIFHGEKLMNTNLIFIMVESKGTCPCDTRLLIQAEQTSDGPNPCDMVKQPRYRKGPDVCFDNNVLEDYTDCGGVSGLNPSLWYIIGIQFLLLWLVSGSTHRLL
N-type calcium channel subunits (α1B, α2δ, and β3a), sequence (P54284 whole entry partner): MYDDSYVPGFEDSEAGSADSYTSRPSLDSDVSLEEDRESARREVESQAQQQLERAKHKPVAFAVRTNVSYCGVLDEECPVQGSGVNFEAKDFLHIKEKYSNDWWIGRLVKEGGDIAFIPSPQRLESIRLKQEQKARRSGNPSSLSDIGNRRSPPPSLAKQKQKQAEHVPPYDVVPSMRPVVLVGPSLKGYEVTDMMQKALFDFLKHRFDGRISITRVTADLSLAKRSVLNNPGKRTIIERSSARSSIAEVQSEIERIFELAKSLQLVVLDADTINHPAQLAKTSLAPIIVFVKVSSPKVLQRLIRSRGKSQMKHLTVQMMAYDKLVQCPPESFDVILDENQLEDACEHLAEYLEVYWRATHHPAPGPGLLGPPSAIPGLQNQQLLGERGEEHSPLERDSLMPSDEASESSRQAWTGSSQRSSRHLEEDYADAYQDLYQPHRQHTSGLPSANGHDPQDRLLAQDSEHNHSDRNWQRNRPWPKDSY

IC50 [1] [nM]	IC50 [2] [nM]	IC50 [3] [nM]	Compound
2630	490	790	O=C(N[C@H]1CC[C@@](F)(S(=O)(=O)c2cccc(C(F)(F)F)c2)CC1)c1cnccc1C(F)(F)F [Compound 267]
3190	1540	390	O=C(N[C@H]1CC[C@@](F)(S(=O)(=O)c2cccc(C(F)(F)F)c2)CC1)[C@@H]1C[C@H](c2ccccc2)CN1 [Compound 286, (2S,4R)-N-((1S,4R)-4-fluoro-4-(3-(trifluoromethyl)phenylsulfonyl)cyclohexyl)-4-phenylpyrrolidine-2-carboxamide]
4200	3820	1460	O=C(NC1CCC(S(=O)(=O)c2cccc(C(F)(F)F)c2)CC1)c1ccc(C(F)(F)F)cn1 (stereo not drawn) [Compound 10, 5-(trifluoromethyl)-N-(4-(3-(trifluoromethyl)phenylsulfonyl)cyclohexyl)picolinamide]
1250	1060	1140	O=C(Nc1ccc(Oc2ccc(F)c(Cl)c2)nc1)[C@H]1C[C@H](S(=O)(=O)c2cccc(C(F)(F)F)c2)C1 [Compound 399, (1R,3R)-N-(6-(3-chloro-4-fluorophenoxy)pyridin-3-yl)-3-(3-(trifluoromethyl)phenylsulfonyl)cyclobutane carboxamide]
> 10000	2390	360	CN(C(=O)c1ccc(F)c(C(F)(F)F)c1)[C@H]1CC[C@@](F)(S(=O)(=O)c2cc(F)cc(C(F)(F)F)c2)CC1 [Compound 334, 4-fluoro-N-((1S,4S)-4-fluoro-4-(3-fluoro-5-(trifluoromethyl)phenylsulfonyl)cyclohexyl)-N-methyl-3-(trifluorornethyl) benzamide]
720	710	4220	O=C(NC[C@H]1C[C@@H](S(=O)(=O)c2cccc(C(F)(F)F)c2)C1)c1ccnn1CC(F)(F)F [Compound 387, 1-(2,2,2-trifluoroethyl)-N-(((1S,3S)-3-(3-(trifluoromethyl)phenylsulfonyl)cyclobutyl)methyl)-1H-pyrazole-5-carboxamide]
900	460	4310	O=C(N[C@H]1CC[C@](F)(S(=O)(=O)c2cccc(C(F)(F)F)c2)CC1)c1nc2cc(C(F)(F)F)ccc2[nH]1 [Compound 80, N-((1R,4R)-4-fluoro-4-(3-(trifluoromethyl)phenylsulfonyl)cyclohexyl)-5-(trifluoromethyl)-1H-benzo[d]imidazole-2-carboxamide]
1620	200	460	O=C(NC[C@H]1C[C@H](S(=O)(=O)c2cccc(C(F)(F)F)c2)C1)c1ccnc(C(F)(F)F)c1 [Compound 361, 2-(trifluoromethyl)-N-(((1R,3R)-3-(3-(trifluoromethyl)phenylsulfonyl)cyclobutyl)methyl)isonicotinamide]
> 10000	> 10000	840	5-(trifluoromethyl)-N-((1R,4R)-4- ((3- (trifluoromethyl)phenylsulfonyl) methyl)cyclohexyl)picolinamide [Compound 104]
> 10000	5950	1360	O=C(NC[C@H]1C[C@@H](S(=O)(=O)c2cccc(C(F)(F)F)c2)C1)c1ccnc(C(F)(F)F)n1 [Compound 383, 2-(trifluoromethyl)-N-(((1S,3S)-3-(3-(trifluoromethyl)phenylsulfonyl)cyclobutyl)methyl)pyrimidine-4-carboxamide]
160	610	160	O=C(N[C@H]1CC[C@@H](S(=O)(=O)c2cccc(C(F)(F)F)c2)CC1)c1ccc(F)c(Cl)c1 [Compound 131, 3-chloro-4-fluoro-N-((1S,4S)-4-(3-(trifluoromethyl)phenylsulfonyl)cyclohexyl)benzamide]
2830	850	4230	Cn1cnc(S(=O)(=O)N[C@H]2CC[C@@](F)(S(=O)(=O)c3cccc(C(F)(F)F)c3)CC2)c1 [Compound 296, N-((1S,4S)-4-fluoro-4-(3-(trifluoromethyl)phenylsulfonyl)cyclohexyl)-1-methyl-1H-imidazole-4-sulfonamide]
> 10000	7430	2770	CC1(NC(=O)CN[C@H]2C[C@H](CS(=O)(=O)c3cccc(C(F)(F)F)c3)C2)CCC1 [Compound 351, N-(1-methylcyclobutyl)-2-((1R,3R)-3-((3-(trifluoromethyl)phenylsulfonyl)methyl)cyclobutylamino)acetamide]
1190	460	320	O=C(N[C@H]1CC[C@@](F)(S(=O)(=O)c2cccc(OC(F)(F)F)c2)CC1)c1ccnn1CC(F)(F)F [Compound 253]
8000	420	2490	Cn1nc(C(F)(F)F)cc1NC(=O)[C@H]1C[C@@H](S(=O)(=O)c2cccc(C(F)(F)F)c2)C1 [Compound 408, (1S,3S)-N-(1-methyl-3-(trifluoromethyl)-1H-pyrazol-5-yl)-3-(3-(trifluoromethyl)phenylsulfonyl)cyclobutane carboxamide]
5530	1930	580	O=C(N[C@H]1C[C@H](CS(=O)(=O)c2cccc(C(F)(F)F)c2)C1)c1ccc(F)c(C(F)(F)F)c1 [Compound 345, 4-fluoro-3-(trifluoromethyl)-N-((1R,3R)-3-((3-(trifluoromethyl)phenylsulfonyl)methyl)cyclobutyl)benzamide]
> 10000	> 10000	1580	CC1(S(=O)(=O)c2cccc(C(F)(F)F)c2)CCC(NC(=O)c2ccn(CC(F)(F)F)n2)CC1 (stereo not drawn) [Compound 7, N-(4-methyl-4-(3-(trifluoromethyl)phenylsulfonyl)cyclohexyl)-l-(2,2,2-trifluoroethyl)-1H-pyrazole-3-carboxamide]
> 10000	> 10000	550	O=C(N[C@H]1CC[C@H](S(=O)(=O)c2cccc(C(F)(F)F)c2)CC1)c1cc(F)cc(C(F)(F)F)c1 [Compound 65, 3-fluoro-5-(trifluoromethyl)-N-((1R,4R)-4-(3-(trifluoromethyl)phenylsulfonyl)cyclohexyl)benzamide]
> 10000	> 10000	150	O=C(NC1CCC(S(=O)(=O)c2cccc(C(F)(F)F)c2)CC1)c1ccc(F)c(C(F)(F)F)c1 (stereo not drawn) [Compound 11, 4-fluoro-3-(trifluoromethyl)-N-(4-(3-(trifluoromethyl)phenylsulfonyl)cyclohexyl)benzamide]
4960	7350	530	CC(C)(N)CN(C(=O)C(F)(F)F)[C@H]1CC[C@@](F)(S(=O)(=O)c2cccc(C(F)(F)F)c2)CC1 [Compound 306, N-(2-amino-2-methylpropyl)-2,2,2-trifluoro-N-((1S,4S)-4-tluoro-4-(3-(trifIuoromethyl)phenylsulfonyl)cyclohexyl) acetamide]
2890	1470	250	CS(=O)(=O)c1cc(Cl)ccc1C(=O)N[C@H]1CC[C@@](F)(S(=O)(=O)c2cccc(C(F)(F)F)c2)CC1 [Compound 262, 4-chloro-N-((1S,4S)-4-fluoro-4-(3-(trifluoromethyl)phenylsulfonyl)cyclohexyl)-2-(methylsulfonyl)benzamide]
8320	4240	2090	CCN(CC)C(=O)CN[C@H]1CC[C@H](CS(=O)(=O)c2cccc(C(F)(F)F)c2)CC1 [Compound 116, N,N-diethyl-2-((1R,4R)-4-((3-(trifluoromethyl)phenylsulfonyl)methyl)cyclohexylamino)acetamide]
1530	1210	4950	Cc1cc(NC(=O)CN[C@H]2CC[C@H](S(=O)(=O)c3cccc(C(F)(F)F)c3)CC2)on1 [Compound 74, N-(3-methylisoxazol-5-yl)-2-((1R,4R)-4-(3-(trifluoromethyl)phenylsulfonyl)cyclohexylamino)acetamide]
6440	2100	240	COc1cc(F)cc(C(=O)N[C@H]2CC[C@@](F)(S(=O)(=O)c3cccc(C(F)(F)F)c3)CC2)c1 [Compound 87, 3-fluoro-N-((1S,4S)-4-fluoro-4-(3-(trifluoromethyl)phenylsulfonyl)cyclohexyl)-5-methoxybenzamide]
4520	540	1030	O=C(N[C@H]1C[C@H](CS(=O)(=O)c2cccc(C(F)(F)F)c2)C1)c1ccc(F)c(Cl)c1 [Compound 348, 3-chloro-4-fluoro-N-((1R,3R)-3-((3-(trifluoromethyl)phenylsulfonyl)methyl)cyclobutyl)benzamide]

Compound	IC50 [1] [nM]	IC50 [2] [nM]	IC50 [3] [nM]
4-chloro-2-methoxy-N-((1S,4S)-4- ((3- (trifluoromethyl)phenylsulfonyl) methyl)cyclohexyl)benzamide [Compound 140]	1100	700	700
CC(C)(NC(=O)[C@H]1C[C@H](S(=O)(=O)c2cccc(C(F)(F)F)c2)C1)c1ccc(F)cc1 [Compound 402, (1R,3R)-N-(2-(4-fluorophenyl)propan-2-yl)-3-(3-(trifluoromethyl)phenylsulfonyl)cyclobutane carboxamide]	640	570	1700
